Experimental findings from PubChem BioAssay (NCI) are described below.

Several values for one entry are separate records, joined by “and”; a condition that tells them apart may be missing. Equal values may be shown once.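 Cultured in 96-well plates, cells were exposed to test compound for 48 hours across five concentrations. Here, GI50 denotes the concentration required for 50% inhibition of growth. TGI: concentration producing complete growth inhibition.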

In the experiment the test system is MDA-MB-468 breast. Description: NCI-60 cell line screen, 48 h.
As to `Clc1cccc(Cl)c1C1CSc2ccccc2N=C1c1ccccc1` (stereo not drawn), the GI50 is 9.59 µM and the TGI was 29.2 µM.
For `Clc1ccc2c(c1)N(CCCN1CCCC1)c1ccccc1S2`, in that order: 2.75 µM and 8.05 µM.
For `CC(C)(C)C(=O)OCOP(=O)(OCOC(=O)C(C)(C)C)C1CC(O)N(O)C1=O` (stereo not drawn), in that order: 5.84 µM and above 100 µM.
For the compound `O=C(/C(=C\c1ccc([N+](=O)[O-])cc1)S(=O)Cc1ccc(F)cc1)c1ccc(F)cc1` (stereo not drawn), the GI50 was 2.05 µM and the TGI worked out at 4.36 µM.
For `CCCCCCCCCCCCCC1=NCCN1CCO`, in that order: 2.12 µM and 5.58 µM.
For `COc1ccc(C(SCC(N)C(=O)O)(c2ccccc2)c2ccccc2)cc1` (stereo not drawn), in that order: 0.0627 µM and above 78.1 µM.
In the same order, the values of `CN(Cc1cc(Br)cc(Br)c1O)Cc1cc(Br)cc(Br)c1O` are 2.09 µM and 13 µM.
Turning to `c1cc2[nH]ncc2cc1-c1nc2ccc3[nH]ncc3c2c2c1CCCC2`, the GI50 was 0.403 µM and the TGI came to 3.16 µM.
In the case of `CC1=CC(=C(c2ccc(N)cc2)c2ccc(N)cc2)C=CC1=N`, the GI50 is 0.373 µM and 0.411 µM; the TGI was 4.9 µM and 4.3 µM.
For the compound `COC1CCN(C(=O)c2cc(Cc3n[nH]c(=O)c4ccccc34)ccc2F)CC1`, the GI50 is 30 µM and the TGI is above 100 µM.
In the same order, the values of `Cl.Fc1c[c-]c(-c2ccccn2)c(F)c1.[Pt].c1ccc(P(c2ccccc2)C([PH+](c2ccccc2)c2ccccc2)[PH+](c2ccccc2)c2ccccc2)cc1` are 2.69 µM and 19.5 µM.
In the same order, the values of `Cc1ccc(-c2cc3c(SCC(=O)Nc4cc(C(F)(F)F)ccc4Cl)nccn3n2)cc1` are above 100 µM and above 100 µM.
For `CCCCCCCCN(CCCCCCCC)CCCCCCNc1cc(OC)cc2cccnc12`, in that order: 3.71 µM and 13.5 µM.
As to `O=C1C(=O)c2c(nc3ccc(Br)cn23)-c2ccccc21`, the GI50 is 1.53 µM and the TGI amounted to 3.22 µM.
In the same order, the values of `COc1ccc(C(=O)c2cc(OC)c(OC)c(OC)c2)cc1/C=C/C(=O)c1ccc(OC)c(OC)c1` are 1.25 µM and 77.7 µM.
In the same order, the values of `NC1CCC(Nc2nc(NCc3ccc(-c4cccs4)nc3)c3ncn(C4CCCC4)c3n2)CC1` (stereo not drawn) are below 0.0134 µM and 0.035 µM.
For `Cc1ccc(C(SCC(N)C(=O)O)(c2ccc(C)cc2)c2ccc(C)cc2)cc1` (stereo not drawn), in that order: 1.46 µM and 16.6 µM.
With `Nc1ncc(-c2ccc3ncnc(N4CCc5cc(F)c(Cl)cc54)c3c2)cn1`, the GI50 is 0.804 µM and the TGI is 3.04 µM.
In the same order, the values of `Nc1nc2c(s1)CCc1c-2c(Br)n(Cc2ccccc2)c1Br` are 2.84 µM and 17.2 µM.
In the same order, the values of `COc1cc2nc(SCC(=O)Nc3cc(OC)c(OC)c(OC)c3)n(Cc3ccccc3)c(=O)c2cc1OC` are 5.72 µM and 20.2 µM.
With `CC(=O)c1cc(C(=O)c2ccc3c(c2)Sc2ccccc2N3)c2c(C)cc(C)cn12`, the GI50 was 0.496 µM and the TGI was above 100 µM.
Regarding `COc1ccc2c(c1)[nH]c(=O)c1c3cc(OC)ccc3cn21`, the GI50 is 0.0393 µM and the TGI came to 1.16 µM.
For `C/C(=C\CCc1ccoc1)CC/C=C(\C)CCCN1CCOCC1`, in that order: 2.58 µM and 9.59 µM.
In the case of `Cn1cc(C2=C(c3cn(C)c4c([N+](=O)[O-])cccc34)C(=O)NC2=O)c2ccccc21`, the GI50 is above 25 µM and the TGI is above 25 µM.
Regarding `Cc1ccccc1-n1ncc(C(=O)c2ccccc2)c1N`, the GI50 was above 25 µM and the TGI is above 25 µM.
As to `Cc1cc(O)ccc1C1=NN(c2ccc(S(C)(=O)=O)cc2)C(=O)CC1`, the GI50 is 11 µM and the TGI was determined as 44.3 µM.
With `Cc1ccc(-c2cc(C(F)(F)F)nn2-c2ccc(S(N)(=O)=O)cc2)cc1`, the GI50 is 24.2 µM and the TGI was found to be 90.7 µM.
In the case of `CCCNNC(=O)c1ccc(-c2ccc(NC(=O)CCCCCCC(=O)N[C@H](C(=O)N3C[C@H](O)C[C@H]3C(=O)N[C@@H](C)c3ccc(-c4scnc4C)cc3)C(C)(C)C)cc2)cc1`, the GI50 was 0.592 µM.
As for `O=C1Nc2c(C(F)(F)F)cccc2[C@@]1(c1ccc(O)cc1)c1ccc(OC(F)(F)F)cc1`, the GI50 is below 0.01 µM and the TGI was below 0.01 µM.
With `O=[N+]([O-])c1ccccc1N/N=C\c1c[nH]c2ccccc12`, the GI50 was 1.13 µM and the TGI amounted to 5.85 µM.
For `Clc1ccc2c(c1)N(c1ncnc3ccc(-c4cnc5[nH]ccc5c4)cc13)CC2`, in that order: 0.38 µM and 13.7 µM.
In the same order, the values of `COC(=O)[C@]12CC[C@@H](C)[C@H](C)[C@@H]1C1=CC[C@@H]3[C@@]4(C)C(C=O)=C[C@@](C)(COC(C)=O)C4=CC[C@@]3(C)[C@]1(C)CC2` are 4.21 µM and 17.7 µM.
In the same order, the values of `CS(=O)(=O)Nc1ccc(-c2cc(-c3ccccc3)cc(C(N)=O)c2N)cc1` are 14.5 µM and above 25 µM.
Consider `COc1cc(-c2nc3ccccc3s2)ccc1NC(=O)COc1ccc(Cl)cc1`, for which the GI50 is 2.08 µM and the TGI amounted to 56.6 µM.
For `O=C(c1ccccc1)c1ccc(Oc2ccc([N+](=O)[O-])cc2[N+](=O)[O-])cc1`, in that order: 1.73 µM and 3.38 µM.
For `[O-][n+]1ccccc1S`, in that order: 4.15 µM and 45.2 µM.
In the same order, the values of `C[C@H](Nc1ncnc2nc[nH]c12)c1cc2ccc(F)cc2nc1-c1ccccn1` are 31.9 µM and above 100 µM.
Take `COc1ccc(C(=O)COC(=O)[C@H](C[Se][Se]C[C@H](NC(=O)c2ccc(Br)cc2F)C(=O)OCC(=O)c2ccc(OC)cc2)NC(=O)c2ccc(Br)cc2F)cc1`: the GI50 was 1.72 µM and the TGI came to 3.85 µM.
For `CC1(C)CCC2=C(O1)c1ccccc1C(=O)C2=O`, in that order: 1.68 µM and 3.36 µM.
Regarding `C=CC(=O)NCc1cccc(Nc2ncc(Br)c(NCCCNC(=O)C3CCC3)n2)c1`, the GI50 was 1.64 µM and 1.02 µM; the TGI is 4.33 µM and 5 µM.
With `CCOC(=O)n1cc(C2=C(c3cn(C)c4ccccc34)COC2=O)c2ccccc21`, the GI50 was 0.053 µM and the TGI is above 100 µM.
For `CN(C)c1ccc(N=C2C=CC(=[N+](C)C)C=C2)cc1`, in that order: 3.04 µM and 12.2 µM.
As to `O=C1NC(=O)C(=C/C=C/c2ccccc2)C(=O)N1`, the GI50 was 2.99 µM and the TGI came to 10.1 µM.
In the same order, the values of `O=C1c2nsnc2C(=O)c2c(F)c(F)c(F)c(F)c21` are 0.672 µM and 2.32 µM.
In the same order, the values of `NC(=O)c1ccc(NN=O)nc1` are above 100 µM and above 100 µM.
For `Nc1nc(OCc2cc(Br)cs2)c2[nH]cnc2n1`, in that order: 14 µM and 58.6 µM.
Turning to `CCN1C(=O)N(CC)C2Nn3c(s/c(=C\c4ccccc4Br)c3=O)=NC21` (stereo not drawn), the GI50 is 1.1 µM and the TGI was 6.87 µM.
